Experimental data as given in ChEMBL document CHEMBL5226326, “Discovery of 1-Benzoyl 4-Phenoxypiperidines as Small-Molecule Inhibitors of the β-Catenin/B-Cell Lymphoma 9 Protein-Protein Interaction” (J Med Chem, 2021).
One block for each compound: values may come before it. The source made the active and inactive calls. No cut-off for these calls is given here.

Experiments:
[1] = biological target: T1, beta-catenin-B-cell lymphoma 9 protein complex (Homo sapiens, UniProt P35222); test: Inhibition of full length beta-catenin (1 to 781 residues) (unknown origin) expressed in Escherichia coli BL21 (DE3)/N-terminal biotinylated human BCL9 HD2 (350 to 375 residues) protein-protein interaction assessed as inhibition constant incubated for 1 hr by Alphascreen assay
T1 sequence (P35222 whole entry): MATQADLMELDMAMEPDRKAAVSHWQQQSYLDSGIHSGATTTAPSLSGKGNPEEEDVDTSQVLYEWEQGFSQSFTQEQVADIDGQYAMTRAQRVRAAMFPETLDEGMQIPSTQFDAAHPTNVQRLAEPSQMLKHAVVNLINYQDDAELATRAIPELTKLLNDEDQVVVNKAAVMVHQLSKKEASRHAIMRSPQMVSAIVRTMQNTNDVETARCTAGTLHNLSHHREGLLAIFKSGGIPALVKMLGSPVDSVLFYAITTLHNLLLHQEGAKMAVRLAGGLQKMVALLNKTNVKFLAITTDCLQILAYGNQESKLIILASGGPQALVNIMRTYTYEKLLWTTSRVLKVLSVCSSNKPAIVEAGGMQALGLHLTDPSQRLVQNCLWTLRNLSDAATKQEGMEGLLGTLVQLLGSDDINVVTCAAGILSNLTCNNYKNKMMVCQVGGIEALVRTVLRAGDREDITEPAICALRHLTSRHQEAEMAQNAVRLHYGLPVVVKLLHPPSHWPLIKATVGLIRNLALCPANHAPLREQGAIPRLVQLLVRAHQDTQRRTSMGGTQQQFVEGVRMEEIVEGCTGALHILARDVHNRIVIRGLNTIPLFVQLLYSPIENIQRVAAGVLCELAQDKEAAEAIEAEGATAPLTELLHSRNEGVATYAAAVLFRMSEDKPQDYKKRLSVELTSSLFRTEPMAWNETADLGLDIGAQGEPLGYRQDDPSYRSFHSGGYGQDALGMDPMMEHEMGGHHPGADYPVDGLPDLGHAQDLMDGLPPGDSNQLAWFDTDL
T1 sequence (O00512 whole entry): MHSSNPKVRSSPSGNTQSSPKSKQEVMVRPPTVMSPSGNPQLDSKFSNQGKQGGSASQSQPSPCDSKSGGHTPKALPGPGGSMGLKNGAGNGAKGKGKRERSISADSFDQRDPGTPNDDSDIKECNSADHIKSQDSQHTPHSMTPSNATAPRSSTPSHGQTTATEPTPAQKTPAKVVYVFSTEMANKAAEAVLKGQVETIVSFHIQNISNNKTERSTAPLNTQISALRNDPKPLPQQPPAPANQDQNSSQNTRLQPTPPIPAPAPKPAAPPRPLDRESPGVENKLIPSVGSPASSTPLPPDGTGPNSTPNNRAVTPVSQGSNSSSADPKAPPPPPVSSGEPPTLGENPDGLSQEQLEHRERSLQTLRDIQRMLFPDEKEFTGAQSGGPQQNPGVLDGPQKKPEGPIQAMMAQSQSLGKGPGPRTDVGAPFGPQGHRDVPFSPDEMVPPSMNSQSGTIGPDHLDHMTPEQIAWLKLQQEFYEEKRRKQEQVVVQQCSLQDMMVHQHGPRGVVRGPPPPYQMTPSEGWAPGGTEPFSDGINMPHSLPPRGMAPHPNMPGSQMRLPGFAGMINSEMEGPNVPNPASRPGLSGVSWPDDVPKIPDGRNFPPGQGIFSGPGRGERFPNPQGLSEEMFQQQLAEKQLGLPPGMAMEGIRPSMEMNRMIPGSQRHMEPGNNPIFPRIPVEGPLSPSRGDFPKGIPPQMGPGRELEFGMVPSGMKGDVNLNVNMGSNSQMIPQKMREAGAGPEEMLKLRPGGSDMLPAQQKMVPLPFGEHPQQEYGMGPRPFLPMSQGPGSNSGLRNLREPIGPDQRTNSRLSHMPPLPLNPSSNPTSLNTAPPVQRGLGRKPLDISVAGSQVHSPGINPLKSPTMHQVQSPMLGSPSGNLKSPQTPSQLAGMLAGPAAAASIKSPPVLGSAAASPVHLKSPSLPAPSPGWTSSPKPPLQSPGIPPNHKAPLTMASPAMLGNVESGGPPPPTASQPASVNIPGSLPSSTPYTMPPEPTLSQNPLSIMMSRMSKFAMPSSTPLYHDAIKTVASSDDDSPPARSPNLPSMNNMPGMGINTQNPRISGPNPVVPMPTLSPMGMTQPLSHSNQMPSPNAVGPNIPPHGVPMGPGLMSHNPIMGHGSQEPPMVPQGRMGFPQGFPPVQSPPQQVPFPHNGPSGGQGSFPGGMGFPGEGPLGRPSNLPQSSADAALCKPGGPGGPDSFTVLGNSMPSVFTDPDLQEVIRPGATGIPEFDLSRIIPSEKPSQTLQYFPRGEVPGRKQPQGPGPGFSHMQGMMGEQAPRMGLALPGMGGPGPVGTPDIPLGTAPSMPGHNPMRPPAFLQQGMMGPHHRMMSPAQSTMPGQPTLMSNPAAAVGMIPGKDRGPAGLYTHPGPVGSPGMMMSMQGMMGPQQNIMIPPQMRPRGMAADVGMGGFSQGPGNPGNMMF

[2] = biological target: T1, beta-catenin-B-cell lymphoma 9 protein complex; test: Inhibition of full length beta-catenin (1 to 781 residues) (unknown origin) expressed in Escherichia coli BL21 (DE3)/N-terminal biotinylated human BCL9 HD2 (350 to 375 residues) protein-protein interaction incubated for 1 hr by Alphascreen assay
[3] = tested on: SW480; test: Inhibition of full length beta-catenin E155A mutant/N-terminal biotinylated human BCL9 HD2 (350 to 375 residues) protein-protein interaction in human SW480 cells at 1 to 10 uM incubated for 3 hr by immunoblot based pull-down assay; assay type: cell-based; conditions: dose 1-10 µM
[4] = tested on: SW480; test: Inhibition of full length beta-catenin D145A mutant/N-terminal biotinylated human BCL9 HD2 (350 to 375 residues) protein-protein interaction in human SW480 cells at 1 to 10 uM incubated for 3 hr by immunoblot based pull-down assay; assay type: cell-based; conditions: dose 1-10 µM
[5] = biological target: T2, beta-catenin-B-cell lymphoma 9 protein complex (Homo sapiens) (UniProt P35222+O00512); test: Inhibition of full length wild type beta-catenin/N-terminal biotinylated human BCL9 HD2 (350 to 375 residues) protein-protein interaction in human SW480 cells at 1 to 10 uM incubated for 3 hr by immunoblot based pull-down assay; assay type: cell-based; conditions: dose 1-10 µM
[6] = tested on: SW480; test: Inhibition of Wnt/beta-catenin signaling pathway in human SW480 cells assessed as reduction in BCL9L level at 12.5 uM incubated for 24 hrs by qRT-PCR analysis (reference value: 100%); assay type: cell-based; conditions: values are per cent of control
[7] = species on record: Homo sapiens; test: Selectivity ratio, ratio of Ki for inhibition of full length beta-catenin (1 to 781 residues) (unknown origin) expressed in Escherichia coli BL21 (DE3)/N-terminal biotinylated human BCL9 HD2 (350 to 375 residues) protein-protein interaction to Ki for inhibition of full length beta-catenin (1 to 686 residues) (unknown origin) expressed in Escherichia coli BL21 (DE3)/N-terminal biotinylated human E-cadherin (824 to 877 residues) protein-protein interaction
[8] = tested on: SW480; test: Inhibition of Wnt/beta-catenin transactivation signalling in human SW480 cells transfected with renilla luciferase and FOPFlash reporter gene at 1.56 uM incubated for 24 hrs by dual-luciferase assay (reference value: 100%); assay type: cell-based; conditions: values are per cent of control
[9] = tested on: SW480; test: Inhibition of Wnt/beta-catenin transactivation signalling in human SW480 cells transfected with renilla luciferase and FOPFlash reporter gene at 6.25 uM incubated for 24 hrs by dual-luciferase assay (reference value: 100%); assay type: cell-based; conditions: values are per cent of control
[10] = species on record: Homo sapiens; test: Selectivity ratio, ratio of IC50 for inhibition of Wnt/beta-catenin transactivation signalling in human HEK293 cells transfected with TOPFlash reporter gene to IC50 for inhibition of Wnt/beta-catenin D145A/E155A mutant transactivation signalling in human HEK293 cells transfected with TOPFlash reporter gene; assay type: cell-based
[11] = tested on: SW480; test: Inhibition of Wnt/beta-catenin signaling pathway in human SW480 cells assessed as reduction in MMP7 level at 12.5 uM incubated for 24 hrs by qRT-PCR analysis (reference value: 100%); assay type: cell-based; conditions: values are per cent of control
[12] = tested on: SW480; test: Inhibition of Wnt/beta-catenin signaling pathway in human SW480 cells assessed as reduction in HPRT level at 12.5 uM incubated for 24 hrs by qRT-PCR analysis (reference value: 100%); assay type: cell-based; conditions: values are per cent of control
[13] = biological target: T2, beta-catenin-B-cell lymphoma 9 protein complex (Homo sapiens); test: Inhibition of beta-catenin/BCL9 protein-protein interaction in human HCT-116 cells at 1 to 12.5 uM incubated for 24 hr by Co-immunoprecipitation assay; assay type: cell-based; conditions: dose 1-12.5 µM
[14] = tested on: SW480; test: Inhibition of Wnt/beta-catenin signaling pathway in human SW480 cells assessed as reduction in Axin2 level at 1 to 12.5 uM incubated for 24 hrs by western blot analysis; assay type: cell-based; conditions: dose 1-12.5 µM
[15] = tested on: SW480; test: Inhibition of Wnt/beta-catenin signaling pathway in human SW480 cells assessed as reduction in Axin2 level at 12.5 uM incubated for 24 hrs by qRT-PCR analysis (reference value: 100%); assay type: cell-based; conditions: values are per cent of control
[16] = tested on: SW480; test: Inhibition of Wnt/beta-catenin transactivation signalling in human SW480 cells transfected with renilla luciferase and FOPFlash reporter gene at 3.125 uM incubated for 24 hrs by dual-luciferase assay (reference value: 100%); assay type: cell-based; conditions: values are per cent of control
[17] = biological target: Catenin beta-1/Cadherin-1 (Homo sapiens) (UniProt P35222+P12830); test: Inhibition of beta-catenin/E-cadherin protein-protein interaction in human HCT-116 cells at 1 to 12.5 uM incubated for 24 hr by Co-immunoprecipitation assay; assay type: cell-based; conditions: dose 1-12.5 µM
Catenin beta-1/Cadherin-1 (Homo sapiens), sequence (P12830 155-882 partner limits assumed, one chain of several): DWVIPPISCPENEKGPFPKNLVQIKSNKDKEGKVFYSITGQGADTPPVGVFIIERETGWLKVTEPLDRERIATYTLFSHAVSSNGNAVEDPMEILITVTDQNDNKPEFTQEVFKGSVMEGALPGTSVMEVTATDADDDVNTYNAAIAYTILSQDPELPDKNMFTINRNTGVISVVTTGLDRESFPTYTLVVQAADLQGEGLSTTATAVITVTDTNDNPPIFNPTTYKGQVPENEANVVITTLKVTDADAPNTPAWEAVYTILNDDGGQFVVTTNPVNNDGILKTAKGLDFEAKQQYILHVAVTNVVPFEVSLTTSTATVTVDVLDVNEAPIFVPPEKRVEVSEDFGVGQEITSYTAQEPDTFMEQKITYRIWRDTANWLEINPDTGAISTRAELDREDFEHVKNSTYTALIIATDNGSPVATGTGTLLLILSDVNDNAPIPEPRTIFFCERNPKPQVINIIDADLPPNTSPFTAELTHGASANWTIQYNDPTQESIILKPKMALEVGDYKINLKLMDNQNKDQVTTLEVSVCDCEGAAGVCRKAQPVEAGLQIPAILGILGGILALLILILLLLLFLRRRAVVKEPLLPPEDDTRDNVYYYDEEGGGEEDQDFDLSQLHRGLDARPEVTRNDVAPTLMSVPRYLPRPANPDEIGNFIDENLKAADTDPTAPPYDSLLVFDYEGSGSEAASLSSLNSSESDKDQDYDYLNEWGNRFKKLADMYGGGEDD

- Ki [1]: > 84 µM
- IC50 [2]: > 100 µM
SMILES: CN(C)C(=O)c1ccc(N2CCNCC2)cc1OC1CCN(C(=O)c2ccc(O[C@H]3CCNC3)c(C3CCC(C(C)(C)C)CC3)c2)CC1 (mixture of isomers)

- Ki [1]: 38 µM
- IC50 [2]: 47 µM
SMILES: CNC(=O)c1ccc(N2CCNCC2)cc1OC1CCN(C(=O)c2ccc(O[C@H]3CCNC3)c(C3CCC(C(C)(C)C)CC3)c2)CC1 (mixture of isomers)

- Ki [1]: 16 µM
- IC50 [2]: 20 µM
SMILES: CC(C)(C)C1CCC(c2cc(C(=O)N3CCC(Oc4cc(N5CCNCC5)ccc4C(N)=O)CC3)ccc2O[C@H]2CCNC2)CC1 (mixture of isomers)

The next lines start with the compound.

SMILES: CC(C)(C)C1CCC(c2cc(C(=O)N3CCC(Oc4cc(N5CCNCC5)ccc4C#N)CC3)ccc2O[C@@H]2CNC[C@H]2OCCOCCOCCNC(=O)CCCC[C@@H]2SC[C@@H]3NC(=O)N[C@@H]32)CC1 (mixture of isomers)
- inhibition [3]: inactive
- inhibition [4]: inactive
- inhibition [5]: Active

SMILES: CC(C)(C)C1CCC(c2cc(C(=O)N3CCC(Oc4cc(N5CCNCC5)ccc4C#N)CC3)ccc2O[C@H]2CCNC2)CC1 (mixture of isomers; 36)
- Ki [1]: 1.2 µM
- IC50 [2]: 1.5 µM

SMILES: CC(C)(C)C1CCC(c2cc(C(=O)N3CCC(Oc4cc(N5CCNCC5)ccc4C#N)CC3)ccc2O[C@H]2CCNC2)CC1 (mixture of isomers; 44)
- Ki [1]: 2.7 µM
- IC50 [2]: 3.3 µM

SMILES: CC(C)(C)C1CCC(c2cc(C(=O)N3CCC(Oc4cc(N5CCNCC5)ccc4C#N)CC3)ccc2O[C@H]2CCNC2)CC1 (mixture of isomers; cis)
- response, % of control [6]: 18.6%
- Ratio Ki [7]: 20
- residual activity [8]: 100%
- residual activity [9]: 96.5%
- Ratio IC50 [10]: 4.2
- response, % of control [11]: 41.8%
- response, % of control [12]: 99.6%
- inhibition [13]: Active
- inhibition [14]: Active
- response, % of control [15]: 9.28%
- residual activity [16]: 104%
- inhibition [17]: inactive
